Measured values: patent US20050010048A1 (published 2005)
Structures can show the parent of a compound that is named as a salt.

| melting point [°C] | SMILES |
| --- | --- |
| 148 to 150 | O=C(c1cc(Cc2ccccc2)cc(Cn2ccnc2)c1)c1cc(Cl)c2cccnc2c1O (as salt: TFA) |
| 123 to 124 | Cc1cc(C(=O)c2cccc(Cc3ccccc3)c2)c(O)c2ncccc12 |
